Tests used:
Assay type in all cases: functional
Staphylococcus aureus [1] = assay: Antibacterial activity against methicillin-resistant Staphylococcus aureus ATCC 43300 assessed as inhibition of bacterial growth measured after 24 hrs by MH broth based assay
Bacillus subtilis = assay: Antibacterial activity against Bacillus subtilis ATCC 6633 assessed as inhibition of bacterial growth measured after 24 hrs by MH broth based assay
Escherichia coli [2] = assay: Antibacterial activity against Escherichia coli MG1655 assessed as inhibition of bacterial growth measured after 24 hrs by MH broth based assay
Proteus = assay: Antibacterial activity against Proteus CMCC (B) 49027 assessed as inhibition of bacterial growth measured after 24 hrs by MH broth based assay
[3] = test system: Staphylococcus epidermidis; assay: Antibacterial activity against methicillin-resistant Staphylococcus epidermidis ATCC 51625 assessed as inhibition of bacterial growth measured after 24 hrs by MH broth based assay
Streptococcus pneumoniae = assay: Antibacterial activity against Streptococcus pneumoniae ATCC 49619 assessed as inhibition of bacterial growth measured after 24 hrs by MH broth based assay
Enterococcus = assay: Antibacterial activity against vancomycin-resistant Enterococcus ATCC 700221 assessed as inhibition of bacterial growth measured after 24 hrs by MH broth based assay
Escherichia coli [4] = assay: Antibacterial activity against Escherichia coli ATCC 25922 assessed as inhibition of bacterial growth measured after 24 hrs by MH broth based assay
Klebsiella pneumoniae = assay: Antibacterial activity against Klebsiella pneumonia CMCC (B) 46117 assessed as inhibition of bacterial growth measured after 24 hrs by MH broth based assay
Staphylococcus aureus [5] = assay: Antibacterial activity against Staphylococcus aureus ATCC 29213 assessed as inhibition of bacterial growth measured after 24 hrs by MH broth based assay
Escherichia coli [6] = assay: Antibacterial activity against Escherichia coli MG1655 harbouring acrB gene assessed as inhibition of bacterial growth measured after 24 hrs by MH broth based assay

For C=C[C@]1(C)C[C@@H](OC(=O)CSc2cc[n+](CCCCCCCC(=O)O)cc2)[C@]2(C)[C@H](C)CC[C@]3(CCC(=O)[C@H]32)[C@@H](C)[C@@H]1O.[I-], the MIC (Staphylococcus aureus [1]) was 8 µg/mL, the MIC (Bacillus subtilis) was greater than 64 µg/mL and the MIC (Escherichia coli [2]) was greater than 64 µg/mL. The MIC (Proteus) was greater than 64 µg/mL, the MIC [3] was 4 µg/mL and the MIC (Streptococcus pneumoniae) was 2 µg/mL. It also gave an MIC (Enterococcus) of 64 µg/mL, an MIC (Escherichia coli [4]) greater than 64 µg/mL and an MIC (Klebsiella pneumoniae) greater than 64 µg/mL. For the same molecule, the MIC (Staphylococcus aureus [5]) was 8 µg/mL and the MIC (Escherichia coli [6]) was 32 µg/mL.

With C=C[C@]1(C)C[C@@H](OC(=O)CSc2cc[n+](CCCC)cc2)[C@]2(C)[C@H](C)CC[C@]3(CCC(=O)[C@H]32)[C@@H](C)[C@@H]1O.[I-] the MIC (Staphylococcus aureus [1]) was 0.25 µg/mL, the MIC (Bacillus subtilis) was 64 µg/mL and the MIC (Escherichia coli [2]) was 64 µg/mL. The MIC (Proteus) was greater than 64 µg/mL, the MIC [3] was 0.063 µg/mL and the MIC (Streptococcus pneumoniae) was less than 0.031 µg/mL. It also gave an MIC (Enterococcus) of 16 µg/mL, an MIC (Escherichia coli [4]) of 64 µg/mL and an MIC (Klebsiella pneumoniae) of 16 µg/mL. It also gave an MIC (Staphylococcus aureus [5]) of 0.25 µg/mL and an MIC (Escherichia coli [6]) of 0.5 µg/mL.

C=C[C@]1(C)C[C@@H](OC(=O)CSc2cc[n+](CCCCCCC(=O)O)cc2)[C@]2(C)[C@H](C)CC[C@]3(CCC(=O)[C@H]32)[C@@H](C)[C@@H]1O.[I-] was tested, and the MIC (Staphylococcus aureus [1]) was 0.5 µg/mL, the MIC (Bacillus subtilis) was 64 µg/mL and the MIC (Escherichia coli [2]) was 64 µg/mL. The MIC (Proteus) was 64 µg/mL, the MIC [3] was 2 µg/mL and the MIC (Streptococcus pneumoniae) was 0.5 µg/mL. The MIC (Enterococcus) was 64 µg/mL, the MIC (Escherichia coli [4]) was 64 µg/mL and the MIC (Klebsiella pneumoniae) was 64 µg/mL. It also gave an MIC (Staphylococcus aureus [5]) of 0.5 µg/mL and an MIC (Escherichia coli [6]) of 32 µg/mL.

For C=C[C@]1(C)C[C@@H](OC(=O)CSc2cc[n+](CC(=O)NCCc3ccc(O)cc3)cc2)[C@]2(C)[C@H](C)CC[C@]3(CCC(=O)[C@H]32)[C@@H](C)[C@@H]1O.[I-], the MIC (Staphylococcus aureus [1]) was 0.5 µg/mL, the MIC (Bacillus subtilis) was greater than 64 µg/mL and the MIC (Escherichia coli [2]) was 64 µg/mL. For the same molecule, the MIC (Proteus) was greater than 64 µg/mL, the MIC [3] was 0.25 µg/mL and the MIC (Streptococcus pneumoniae) was 0.25 µg/mL. The MIC (Enterococcus) was 64 µg/mL, the MIC (Escherichia coli [4]) was 64 µg/mL and the MIC (Klebsiella pneumoniae) was 32 µg/mL. It also gave an MIC (Staphylococcus aureus [5]) of 0.5 µg/mL and an MIC (Escherichia coli [6]) of 1 µg/mL.

In the case of C=C[C@]1(C)C[C@@H](OC(=O)CSc2cc[n+](CCCC)cc2)[C@]2(C)[C@H](C)CC[C@]3(CCC(=O)[C@H]32)[C@@H](C)[C@@H]1O.[Br-], the MIC (Staphylococcus aureus [1]) is reported as 0.25 µg/mL, the MIC (Bacillus subtilis) is reported as 64 µg/mL and the MIC (Escherichia coli [2]) is reported as 64 µg/mL. For the same molecule, the MIC (Proteus) was greater than 64 µg/mL, the MIC [3] was 0.125 µg/mL and the MIC (Streptococcus pneumoniae) was 0.063 µg/mL. It also gave an MIC (Enterococcus) of 16 µg/mL, an MIC (Escherichia coli [4]) of 64 µg/mL and an MIC (Klebsiella pneumoniae) of 32 µg/mL. It also gave an MIC (Staphylococcus aureus [5]) of 0.25 µg/mL and an MIC (Escherichia coli [6]) of 1 µg/mL.

Source: ChEMBL document CHEMBL5346923, “Novel pyridinium cationic pleuromutilin analogues overcoming bacterial multidrug resistance” (Eur J Med Chem, 2023)
